Data: patent US20130029964A1, “[5, 6] HETEROCYCLIC COMPOUND” (DAIICHI SANKYO COMPANY, LIMITED, priority 2010, published 2013)
Counter-ions that a name gives are not always drawn.

System: ST2 cells, murine bone marrow-derived stromal cells
Assay: Osteoblast differentiation test (ALP activity)
Assay type: cell-based
Conditions: Mus musculus, ST-2, 96 h, at 0.1 μg/mL, control group (0.1% DMSO) = 100%, four days of culturing, read-out: alkaline phosphatase activity
Protocol: ST2 cells, murine bone marrow-derived stromal cells, (obtained from RIKEN) were used.
In this test, α-MEM media (obtained from GIBCO BRL Cat. No. 10370-021) containing 10% (v/v) of inactivated calf serum (obtained from Hyclone Laboratories, Inc.) and 1% (v/v) of Penicillin-Streptomycin Liquid (obtained from GIBCO BRL Cat. No. 15140-122) (hereinbelow, abbreviated as 10%-FBS-αMEM) were used. In this test, all culturing was performed in a CO2 incubator (37° C., 95% humidity, 5% CO2).
The aforementioned cells were detached with 2 mL of a 0.25% trypsin solution (obtained from GIBCO BRL Cat. No. 15050-065) and dispersed in 10 mL of 10%-FBS-αMEM. Subsequently, the cells were collected by centrifugation (25° C., 800 rpm, five minutes). Then, a cell suspension containing 40000 of the cells/mL of 10%-FBS-αMEM was prepared. The cell suspension was then dispensed into 96-well plates (the product of Falcon), 100 μL per well, at a density of 4000 cells/well, followed by culturing for 24 hours. To the wells, except for the below-described well containing a control group, the compound was dispensed at final concentrations of 0.01, 0.03, 0.1, and 0.3 μg/ml. To the well of a control group, DMSO was dispensed at a final concentration of 0.1% (v/v). After four days of culturing, the activity of alkaline phosphatase (ALP) was measured in each group.
The measurement of ALP activity was performed as follows. That is, the medium in each well of the culture plates was completely removed. Each well was then washed by dispensing 100 μL of Dulbecco's phosphate buffer (obtained from GIBCO BRL Cat. No. 14190-144) and then removing it. A cell lysate solution containing 10 mM MgCl2 and 2% (v/v) TritonX-100 (Sigma) was prepared and dispensed at 50 μL/well, followed by stirring at room temperature for five minutes. An ALP substrate solution containing 50 mM diethanolamine (Wako Pure Chemical Industries, Ltd., Cat. No. 099-03112) and 20 mM p-nitrophenyl phosphate (Wako Pure Chemical Industries, Ltd., Cat. No. 147-02343) was prepared and dispensed at 50 μL/well, and the plates were left to stand at room temperature for 10 minutes. Subsequently, absorbance was measured by a microplate reader (Bio-Rad Laboratories, Inc.). Setting the measurement value of the control group of each plate at 100%, alkaline phosphatase activity (increase (%)) in the test compound-addition group was calculated, which was assessed as the degree of osteoblast differentiation.

SMILES | activity at 0.1 µg/mL
OCCNc1ccc(-n2cnc3ccccc32)cc1 [Example 97] | ≥ 200%
OCCOc1ccc(-n2cnc3ccc(Cl)cc32)cc1 [Example 31] | ≥ 200%
CC(C)(C)OC(=O)NCCOc1ccc(-n2cnc3ccccc32)cc1 [Example 99] | ≥ 200%
CCOc1ccn2c(-c3ccc(OCCO)cc3)cnc2c1 [Example 34] | ≥ 200%
COCCNc1ccc(-n2cnc3ccccc32)cc1 [Example 6] | ≥ 200%
CC(=O)N1CC=C(c2ccn3c(-c4ccc(OCCOC5CCOCC5)cc4)cnc3c2)CC1 [Example 68] | ≥ 200%
OC1COCC1OCCOc1ccc(-n2cnc3ccc(OC(F)F)cc32)cc1 (centres unmarked) [Example 96] | ≥ 200%
NC(=O)c1ccc(-c2ccc3c(c2)ncn3-c2ccc(OCCO)cc2)cc1 [Example 15, 4-{1-[4-(2-Hydroxyethoxy)phenyl]-1H-benzimidazol-5-yl}benzamide dihydrochloride] | ≥ 200%
CS(=O)(=O)N1CC=C(c2ccc3c(c2)ncn3-c2ccc(OCCO)cc2)CC1 [Example 61] | ≥ 200%
OCCOc1ccc(-n2cnc3cc(-c4ccccc4)ccc32)cc1 [Example 41] | ≥ 200%
c1cc(-c2ccc3ncc(-c4ccc(OCCOC5CCOCC5)cc4)n3c2)ccn1 [Example 141] | ≥ 200%
CCOc1ccc2c(c1)ncn2-c1ccc(OCCO)cc1 [Example 30] | ≥ 200%
O=C(C1CC1)N1CCC(OCCOC2CCN(c3cnc4ccc(-c5ccncc5)cn34)CC2)CC1 [Example 140] | ≥ 200%
c1coc(-c2ccc3ncc(-c4ccc(OCCOC5CCOCC5)cc4)n3c2)n1 [Example 150] | ≥ 200%
COC1COCC1OCCOc1ccc(-c2cnc3ccc(F)cn23)cc1 (centres unmarked) [Example 84] | ≥ 200%
OCCOC1CCN(c2cnc3cc(-c4ccncc4)ccn23)CC1 [Example 76] | ≥ 200%
Cn1cc(-c2ccn3c(N4CCC(OCCOC5CCOCC5)CC4)cnc3c2)cn1 [Example 104] | ≥ 200%
OCCOc1ccc(-c2cnc3ccc(Cl)cn23)cc1 [Example 116] | ≥ 200%
N#Cc1ccc2ncn(-c3ccc(OCCOC4COCC4O)cc3)c2c1 (centres unmarked) [Example 94] | ≥ 200%
CN(C)C(=O)c1ccc(-c2ccn3c(N4CCC(OCCO)CC4)cnc3c2)cc1 [Example 107] | ≥ 200%
O=C(c1ccc(-c2ccc3c(c2)ncn3-c2ccc(OCCO)cc2)cn1)N1CCOCC1 [Example 16, 2-(4-{5-[6-(Morpholin-4-ylcarbonyl)pyridin-3-yl]-1H-benzimidazol-1-yl}phenoxy)ethanol] | ≥ 200%
OCCOc1ccc(-c2cnc3ccc(F)cn23)cc1 [Example 7, 2-[4-(6-Fluoroimidazo[1,2-a]pyridin-3-yl)phenoxy]ethanol] | ≥ 200%

SMILES | activity at 0.1 µg/mL
CN(C)S(=O)(=O)c1ccc(-c2ccn3c(-c4ccc(OCCO)cc4)cnc3c2)cc1 [Example 134] | ≥ 200%
N#Cc1ccc2ncc(-c3ccc(OCCO)cc3)n2c1 [Example 69] | ≥ 200%
N#Cc1ccc(-c2ccc3c(c2)ncn3-c2ccc(OCCO)cc2)cc1 [Example 51] | ≥ 200%
Cn1cc(-c2ccc3c(c2)ncn3-c2ccc(OCCO)cc2)cn1 [Example 63] | ≥ 200%
N#Cc1ccc2ncc(-c3ccc(OCCOC4COCC4O)cc3)n2c1 (centres unmarked) [Example 91] | ≥ 200%
N#Cc1ccn2c(-c3ccc(OCCO)cc3)cnc2c1 [Example 75] | ≥ 200%
OCCOc1ccc(-n2cnc3cc(-c4ccncc4)ccc32)cc1 [Example 9, 2-[4-(5-Pyridin-4-yl-1H-benzimidazol-1-yl)phenoxy]ethanol] | ≥ 200%
CS(=O)(=O)N1CCN(c2ccc3c(c2)ncn3-c2ccc(OCCO)cc2)CC1 [Example 59] | ≥ 200%
O=C(C1CC1)N1CCC(OCCOC2CCN(c3cnc4ccc(Cl)cn34)CC2)CC1 [Example 138] | ≥ 200%
COC1COCC1OCCOc1ccc(-c2cnc3ccc(C#N)cn23)cc1 (centres unmarked) [Example 114] | ≥ 200%
COc1ccc2ncc(-c3ccc(NCCO)cc3)n2c1 [Example 123] | ≥ 200%
OCCOc1ccc(-c2cnc3ccc(-c4ccncc4)cn23)cc1 [Example 71] | ≥ 200%
Cn1cc(-c2ccn3c(-c4ccc(OCCO)cc4)cnc3c2)cn1 [Example 65] | ≥ 200%
c1cc(-c2ccc3c(c2)ncn3-c2ccc(OCCOC3CCOCC3)cc2)ccn1 [Example 44] | ≥ 200%
O=C(c1ccc(-c2ccn3c(-c4ccc(OCCO)cc4)cnc3c2)cc1)N1CCOCC1 [Example 102] | ≥ 200%
Cn1cc(-c2ccc3ncc(-c4ccc(NCCOC5CCOCC5)cc4)n3c2)cn1 [Example 136] | ≥ 200%
N#Cc1ccc2ncn(-c3ccc(OCCOC[C@H]4COCCO4)cc3)c2c1 [Example 92] | ≥ 200%
OCCOc1ccc(-n2cnc3ccc(F)cc32)cc1 [Example 47] | ≥ 200%
Cc1cc(-c2ccc3c(c2)ncn3-c2ccc(OCCO)cc2)ccn1 [Example 43] | ≥ 200%
OCCOc1ccc(-n2cnc3cc(N4CCOCC4)ccc32)cc1 [Example 36] | ≥ 200%
O=C(O)c1ccc(OCCOc2ccc(-n3cnc4ccccc43)cc2)cc1 [Example 12, 4-{2-[4-(1H-Benzimidazol-1-yl)phenoxy]ethoxy}benzoic acid hydrochloride] | ≥ 200%
OCCOc1ccc(-c2cnn3ccccc23)cc1 [Example 117] | ≥ 200%

SMILES | activity at 0.1 µg/mL
COCCOCCOc1ccc(-c2cnc3ccc(F)cn23)cc1 [Example 81] | ≥ 200%
Fc1ccc2ncn(-c3ccc(OCCOC4CCOCC4)cc3)c2c1 [Example 48] | ≥ 200%
NC(=O)c1ccc2ncc(-c3ccc(OCCOC4CCOCC4)cc3)n2c1 [Example 19, 3-{4-[2-(Tetrahydro-2H-pyran-4-yloxy)ethoxy]phenyl}imidazo[1,2-a]pyridine-6-carboxamide] | ≥ 200%
OCCOc1ccc(-n2cnc3cc(-c4cn[nH]c4)ccc32)cc1 [Example 54] | ≥ 200%
CC(=O)N1CC=C(c2ccn3c(-c4ccc(OCCO)cc4)cnc3c2)CC1 [Example 66] | ≥ 200%
COc1cc2ncn(-c3ccc(NCCO)cc3)c2cc1OC [Example 28] | ≥ 200%
O=C(C1CC1)N1CCC(OCCNc2ccc(-c3cnc4ccccn34)cc2)CC1 [Example 137] | ≥ 200%
O=C(COCCOc1ccc(-n2cnc3ccccc32)cc1)N1CCOCC1 [Example 56] | ≥ 200%
OCCNc1ccc(-n2cnc3cc(Cl)c(Cl)cc32)cc1 [Example 26] | ≥ 200%
OCCNc1ccc(-c2cnn3ccccc23)cc1 [Example 122] | ≥ 200%
c1ccc2c(c1)ncn2-c1ccc(NCCOC2CCOCC2)cc1 [Example 101] | ≥ 200%
O=C(c1ccc(-c2ccn3c(N4CCC(OCCOC5CCOCC5)CC4)cnc3c2)cc1)N1CCOCC1 [Example 17, 7-[4-(Morpholin-4-ylcarbonyl)phenyl]-3-{4-[2-(tetrahydro-2H-pyran-4-yloxy)ethoxy]piperidin-1-yl}imidazo[1,2-a]pyridine] | ≥ 200%
Cn1cc(-c2ccn3c(N4CCC(OCCO)CC4)cnc3c2)cn1 [Example 105] | ≥ 200%
c1ccn2c(-c3ccc(NCCOC4CCOCC4)cc3)cnc2c1 [Example 109] | ≥ 200%
OCCOc1ccc(-n2cnc3cc(-c4nccs4)ccc32)cc1 [Example 64] | ≥ 200%
Fc1ccc2ncc(-c3ccc(NCCOC4CCOCC4)cc3)n2c1 [Example 111] | ≥ 200%
Fc1ccc2ncc(-c3ccc(OCCOCCOC4CCOCC4)cc3)n2c1 [Example 82] | ≥ 200%
CC(=O)N1CCN(c2ccc3c(c2)ncn3-c2ccc(OCCO)cc2)CC1 [Example 40] | ≥ 200%
CS(=O)(=O)c1ccc(-c2ccc3c(c2)ncn3-c2ccc(OCCO)cc2)cn1 [Example 129] | ≥ 200%
COc1ccn2ncc(-c3ccc(OCCO)cc3)c2c1 [Example 120] | ≥ 200%
CC(=O)Nc1ccc(-c2ccc3c(c2)ncn3-c2ccc(OCCO)cc2)cc1 [Example 14, N-(4-{1-[4-(2-Hydroxyethoxy)phenyl]-1H-benzimidazol-5-yl}phenyl)acetamide] | ≥ 200%
